Consider five compounds from patent publication US20210318292A1, “System and Method to Detect Small Molecules” (Sensorium Bio, Inc., priority 2020, published 2021).

Assay [1] has as its target T1, OR1A1 (Homo sapiens, UniProt Q9P1Q5).
T1 sequence (Q9P1Q5 1-309): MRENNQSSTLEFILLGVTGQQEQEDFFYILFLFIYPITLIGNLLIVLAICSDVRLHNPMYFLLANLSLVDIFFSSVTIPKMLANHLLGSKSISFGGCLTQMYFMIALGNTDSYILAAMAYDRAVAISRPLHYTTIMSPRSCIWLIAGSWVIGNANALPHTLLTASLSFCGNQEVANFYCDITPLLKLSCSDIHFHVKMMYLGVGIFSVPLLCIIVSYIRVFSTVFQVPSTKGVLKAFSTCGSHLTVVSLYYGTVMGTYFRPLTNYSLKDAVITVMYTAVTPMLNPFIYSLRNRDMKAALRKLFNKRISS
The conditions noted are these: cited from earlier work.

Assay [2] deals with MOR203-1. The conditions noted are these: cited from earlier work.
Assay [3] has as its target T2, OR2W1 (Homo sapiens, UniProt Q9Y3N9).
T2 sequence (Q9Y3N9 1-320): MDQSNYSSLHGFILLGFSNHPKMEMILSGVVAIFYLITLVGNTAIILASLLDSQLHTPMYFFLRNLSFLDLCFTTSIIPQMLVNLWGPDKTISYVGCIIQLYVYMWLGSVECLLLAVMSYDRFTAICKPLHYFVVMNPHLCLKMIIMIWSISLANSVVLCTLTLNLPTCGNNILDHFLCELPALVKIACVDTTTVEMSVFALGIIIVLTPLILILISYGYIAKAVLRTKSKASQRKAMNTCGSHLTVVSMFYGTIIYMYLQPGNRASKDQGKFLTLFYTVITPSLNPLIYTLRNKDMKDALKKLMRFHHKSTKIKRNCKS
The conditions noted are these: cited from earlier work.

The subject of assay [4] is MOR272-1. The conditions noted are these: cited from earlier work.
The test system of assay [5] is mOR256. The assay can be described thus: Luminescent assay (cAMP-responsive luciferase reporter). The conditions noted are these: FIG. 6B; luciferase reporter read 5.5 hours after stimulation. Format: cell-based. (Reporter assays use an easily measured gene product as a stand-in for the process of interest.)
In assay [6] the target is T1, OR1A1. Described as above. Type of assay: cell-based. The conditions noted are these: FIG. 6A; luciferase reporter read 5.5 hours after stimulation. The protocol:
Cells are seeded at a density of 15,000 cells per well in a solid white 96-well microplate and allowed to adhere prior to be transfected with different plasmids including but not limited to 10 ng GPCR-expressing plasmid and 10 ng cAMP-responsive luciferase reporter plasmid. The day following the transfection, the receptor-expressing cells are then stimulated with the ligands being tested. After a period to 5.5 hours following the stimulation, the cells are lysed and the luciferase reporter activity is measured following the manufacturer protocol. The amount of luciferase activity is proportional to the ligand-mediated activation level of the exogenous GPCR. FIG. 6 is the result of luminescent assay showing dose response curves of OR1A1 for propylbenzene in FIG. 6A and 1-hexanol in FIG. 6B. The cells produce light by expressing a luciferase enzyme as a reporter readout from a cAMP secondary messenger. The ligand-mediated GPCR activation leads to intracellular cAMP accumulation which triggers a luciferase activity increase which is measured.

In assay [7] the test system is MOR271-1. The conditions noted are these: cited from earlier work.
Assay [8] relates to exogenous ethylene benzene responsive GPCR. The conditions noted are these: pure 5 μL hanging droplet on plate lid, no direct contact; transfected human embryonic kidney cells; within minutes. The method, then: Transfected human embryonic kidney cells were seeded at 60,000 cells per well in a poly-D-lysine coated 96-well plate. The exogenous ethylene benzene responsive GPCR and calcium reporter were present in the cytosol. Pure ethylene benzene was deposited as a hanging 5 μL droplet on the plate lid. Once the plate was placed over the well, there was no direct contact between the […] and the culture medium overlaid cells.

In the case of `CCCCCCC(C)=O` [2-octanone], the “binding to receptor OR1A1” value in assay [1] is “bind differentially”. Besides, the “binding to receptor MOR203-1” value in assay [2] is reported as “bind differentially”. Moreover, the “binding to receptor OR2W1” value in assay [3] is “bind differentially”. The “binding to receptor MOR272-1” value in assay [4] is reported as “bind differentially”.

Take `CCCCCCO` [1-hexanol]: in assay [5], the “detection by mOR256, luminescent assay dose response curve” value is “detection”.

Turning to `CCCc1ccccc1` [propylbenzene], the “detection by OR1A1, luminescent assay dose response curve” value in assay [6] is recorded as “detection”.

As to `CCCCC(=O)CC` [3-heptanone], in assay [7], the “binding to receptor MOR271-1” value is listed as “bind differentially”. Also, the “binding to receptor OR1A1” value in assay [1] is listed as “bind differentially”. For the same compound, in assay [2], the “binding to receptor MOR203-1” value is “bind differentially”. In addition, the “binding to receptor OR2W1” value in assay [3] was “bind differentially”. The “binding to receptor MOR272-1” value in assay [4] is reported as “bind differentially”.

Turning to `C=C.c1ccccc1` [ethylene benzene], the “fluorescence of the calcium reporter after gas phase exposure” value in assay [8] was “measurable fluorescence increase”.
